From patent publication US20110300147A9, “Inhibiting tumor cell invasion, metastasis and angiogenesis” (The Scripps Research institute, priority 2005, published 2011) come the findings set out here.

Each structure is given as a SMILES string.

In assay [1] the test system is angiogenesis in Matrigel plugs. Briefly: Matrigel plug angiogenesis assay in vivo. Also on record: species or system Balb C nu/nu mice. The protocol:
The effect of AEPI-1 on angiogenesis was further investigated in vivo using a Matrigel plug assay. Matrigel containing FGF-2 was injected subcutaneously into Balb C nu/nu mice.
The effect of AEPI-1 on angiogenesis induced by cancer cells was then investigated by including human breast cancer cells (MDA-MB-231 cells) in the Matrigel plugs. The cancer cells produced a spectrum of angiogenic factors and induced robust angiogenic vessel growth (FIG. 5C).

In assay [2] the target is legumain cleavage of caspase 9 (Homo sapiens, UniProt Q99538). In words: caspase 9 activity after legumain cleavage. Format: biochemical. From the text: Legumain catalytically inactivates caspase 9. In addition to suppression of cathepsin B, legumain efficiently inactivates caspase 9 and depletes the cell of pro-caspase 9 (FIG. 20A). […] Loss of pro-caspase 9 led to reduced caspase 3 activation in a reconstituted apoptosome system (FIG. 20D), which was further confirmed by detection of reduced caspase 3 activity (FIG. 20E). These observations indicate that asparaginyl endopeptidases play a critical role in cell survival and tumorigenesis.
legumain cleavage of caspase 9, sequence (Q99538 18-323, species assumed): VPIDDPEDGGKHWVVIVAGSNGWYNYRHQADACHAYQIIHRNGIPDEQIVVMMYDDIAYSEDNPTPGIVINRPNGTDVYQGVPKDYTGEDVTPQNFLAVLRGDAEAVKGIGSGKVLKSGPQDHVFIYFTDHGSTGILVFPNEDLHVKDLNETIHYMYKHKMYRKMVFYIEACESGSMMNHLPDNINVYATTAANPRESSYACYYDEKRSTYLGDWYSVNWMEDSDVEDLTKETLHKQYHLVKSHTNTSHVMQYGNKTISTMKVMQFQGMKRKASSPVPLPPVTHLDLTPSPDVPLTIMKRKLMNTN

Another assay has as its system breast cancer cells. Briefly: hypoxia induced breast cancer cell migration in vitro. Format: cell-based.
A further assay has as its system 4T1 breast cells. Briefly: 4T1 experimental lung metastasis model. Format: in vivo, BALB/c mice. The conditions noted are these: AEPI-1 100 μg i.p. daily for two weeks. The method, then:
A lung metastasis model was induced experimentally by injecting a cell suspension of 4T1 breast cells (1×10^5) suspended in 0.1 ml serum free medium into the tail vein of six-week-old female BALB/c mice. The mice were treated with 100-μl intraperitoneal injections of either PBS alone (control group) or LEG-3 (100 μg/100 μl) daily for two weeks.
4T1 Lung Experimental Metastasis was generated by suspending 4T1 cells (1×10^5) in 0.1 ml serum-free medium and injecting these cells into the tail vein of mice under the anesthesia. Treatment involved 100 μl intraperitoneal injection of either saline alone (control group) or AEPI-1 (treatment group). The AEPI-1 treatment group was given 100 μg AEPI-1 in saline (100 ul) by intraperitoneal injection daily for two weeks. All mice were euthanized by CO2 and lungs were removed, weighted and fixed in the Bouin's solution. Lung metastases were counted by anatomy microscope.

Turning to `CCOC(=O)C1OC1C(=O)N(CC(N)=O)NC(=O)[C@H](C)NC(=O)[C@H](C)NC(=O)OCc1ccccc1` (stereo partly drawn) [AEPI-1, Cbz-Ala-Ala-AzaAsn-(S,S)-EPCOOEt], the “cancer cell-induced angiogenesis in the plug” value in assay [1] (MDA-MB-231 cells in the Matrigel plugs) is reported as “essentially completely inhibited”. Also, the “FGF-2 induced vessel formation in the plug” value in assay [1] (Matrigel containing FGF-2 s.c., gross appearance, hemoglobin content, histology) is “significantly inhibited”. The “loss of caspase 9 activity caused by legumain cleavage” value in assay [2] was “inhibited”. Further, the “hypoxia induced breast cancer cell migration” value in the assay with breast cancer cells was “inhibited”. Besides, the experimental lung metastasis result with 4T1 breast cells is “inhibited experimental lung metastasis”.
